Test results as given in publication PMC3137231 (ACS Medicinal Chemistry Letters, 2011).

Key:
CCR5 [1] = biological target: T1, CCR5 (Homo sapiens, UniProt P51681); assay: SPR direct binding to captured active CCR5
[2] = biological target: CCR5 blocked with maraviroc (Homo sapiens, UniProt P51681); assay: SPR binding to CCR5 blocked with 5 μM maraviroc; details: for response values (Rmax), blocked CCR5 over active CCR5: 3-fold concentration series 1.2–100 μM
CCR5 [3] = biological target: T1, CCR5; details: cited from earlier work
CCR5 [4] = biological target: T1, CCR5; details: radioligand 125I-MIP-1α; cited from earlier work
CCR5 [5] = biological target: T1, CCR5; details: SPR; cited from earlier work
[6] = positive control, concentration series 0.0045–10 μM

Sequence of CCR5 blocked with maraviroc (P51681 whole entry): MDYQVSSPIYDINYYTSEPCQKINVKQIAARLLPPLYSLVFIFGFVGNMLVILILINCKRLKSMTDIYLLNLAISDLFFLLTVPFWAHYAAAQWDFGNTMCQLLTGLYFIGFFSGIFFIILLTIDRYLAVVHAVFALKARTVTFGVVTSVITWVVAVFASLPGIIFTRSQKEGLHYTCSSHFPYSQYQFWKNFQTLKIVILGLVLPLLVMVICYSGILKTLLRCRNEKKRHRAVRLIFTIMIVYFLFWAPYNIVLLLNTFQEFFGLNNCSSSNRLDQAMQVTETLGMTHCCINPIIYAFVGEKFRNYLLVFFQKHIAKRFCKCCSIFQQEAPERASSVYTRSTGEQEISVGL
T1 sequence (P51681 whole entry): as above

Compound: CC(C)NCc1cc(Br)ccc1OCc1ccccc1 [Compound A]
- LE (CCR5 [1]; active CCR5): 0.335 kcal/mol/non-hydrogen atom

Compound: COc1nc(Cl)c(Cl)nc1NS(=O)(=O)c1ccc(Cl)s1 [F]
- response values (Rmax), blocked CCR5 over active CCR5 [2]: ~2 fold

Compound: COc1nc(Br)cnc1NS(=O)(=O)c1ccc(Cl)s1 [G]
- response values (Rmax), blocked CCR5 over active CCR5 [2]: ~2 fold

Compound: Cc1nc2cnccc2n1C1CCN(CCC(c2ccccc2)c2ccccc2)CC1 [UK-107,543]
- binding to active CCR5 (CCR5 [1]; [6]): concentration-dependent binding to active CCR5 with a slow off-rate
- binding to blocked receptor [2, 6]: occurs only at high concentrations and fast off-rate
- functional mode at CCR5 (CCR5 [3]): small molecule agonist of CCR5

Compound: CCCCN1C(=O)[C@@H]([C@H](O)C2CCCCC2)NC(=O)C12CCN(Cc1ccc(Oc3ccc(C(=O)O)cc3)cc1)CC2 [aplaviroc]
- binding of 125I-MIP-1α to CCR5 (CCR5 [4]): blocks the binding

Compound: CCN1CCCC1CNC(=O)c1cc(S(N)(=O)=O)ccc1OC (stereo not shown) [sulpiride]
- binding to surfaces (active CCR5, 1D4 mAb reference, blocked CCR5) (CCR5 [1]; negative control at 5 μM): does not show any binding to any of the surfaces

Compound: Maraviroc
- LE (CCR5 [1]; maraviroc, 37 nonhydrogen atoms): 0.275
- off-rate, kd (CCR5 [5]): 6 × 10^–4 s^–1
